According to patent US6407113B1, “Medicament for treatment of diastolic dysfunction” (Mitsubishi Chemical Corporation, priority 1998, dated 2002):

Tests used:
[1] = molecular target: T1, sarcoplasmic reticulum Ca^2+-ATPase (Canis lupus familiaris, UniProt O46674); assay: Sarcoplasmic reticulum Ca2+-ATPase activity of myocardium collected after in vivo drug administration (Pi colorimetry); type: biochemical, dog
T1 construct: sarcoplasmic reticulum from both post-ischemic and non-ischemic regions of the left ventricle of dogs; from tissue; host or cells: dog left ventricle (LAD occluded 30 min, reperfused 30 min), sarcoplasmic reticulum fraction
T1 sequence (O46674 whole entry, the tested form may be a part): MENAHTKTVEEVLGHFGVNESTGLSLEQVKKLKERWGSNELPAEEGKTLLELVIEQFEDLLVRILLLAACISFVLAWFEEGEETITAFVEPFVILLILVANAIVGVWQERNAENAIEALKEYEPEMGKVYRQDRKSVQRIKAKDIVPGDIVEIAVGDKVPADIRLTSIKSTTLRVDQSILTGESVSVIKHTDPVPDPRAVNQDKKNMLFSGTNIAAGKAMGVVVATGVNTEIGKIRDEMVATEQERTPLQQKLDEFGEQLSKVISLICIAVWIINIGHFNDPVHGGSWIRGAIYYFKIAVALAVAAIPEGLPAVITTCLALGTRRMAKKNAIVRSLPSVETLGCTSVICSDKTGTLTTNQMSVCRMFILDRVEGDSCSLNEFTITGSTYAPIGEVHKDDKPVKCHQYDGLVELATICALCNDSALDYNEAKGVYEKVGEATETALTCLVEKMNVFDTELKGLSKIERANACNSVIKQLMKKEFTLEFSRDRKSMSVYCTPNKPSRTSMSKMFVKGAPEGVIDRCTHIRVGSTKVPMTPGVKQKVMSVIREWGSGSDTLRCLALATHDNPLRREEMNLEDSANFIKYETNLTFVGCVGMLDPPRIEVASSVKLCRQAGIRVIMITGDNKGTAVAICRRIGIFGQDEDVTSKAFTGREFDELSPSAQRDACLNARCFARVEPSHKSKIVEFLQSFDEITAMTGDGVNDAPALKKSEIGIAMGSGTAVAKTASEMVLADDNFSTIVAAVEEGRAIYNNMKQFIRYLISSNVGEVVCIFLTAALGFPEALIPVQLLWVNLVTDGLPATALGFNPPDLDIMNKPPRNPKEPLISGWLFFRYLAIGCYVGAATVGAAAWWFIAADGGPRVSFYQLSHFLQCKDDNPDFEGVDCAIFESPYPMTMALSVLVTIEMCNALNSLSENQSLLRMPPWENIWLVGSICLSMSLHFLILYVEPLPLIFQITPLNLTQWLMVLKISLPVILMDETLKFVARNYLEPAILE
Protocol: After hemodynamic stability is established following operation, the dissected portion of LAD was occluded for 30 minutes and then reperfused for 1 hour. At the same time, the cardiac function (%SS) in the above-described ischemic/reperfused region was continuously monitored through-out the protocol.
The animals were randomly grouped into two groups, one consisting of animals to be administered with the medicament of the present invention (Drug administration group; N=6) and the other of control group (N-6). The dogs of drug administration group were intravenously administered with the medicament of the present invention (3 μg/kg) into the right femoral vein 5 minutes before reperfusion, followed by continuous infusion at 30 μg/kg/hr. Dogs of the control group were administered with the equal amount of saline.
After 1-hour reperfusion, their hearts were isolated and the myocardium in post-ischemic region and non-ischemic region of the left ventricles were collected from which the fractions having sarcoplasmic reticulum Ca^2+-ATPase activity were extracted to be subjected to protein assay (Bradford method) and stored at −80° C. The defrozen fractions were used to determine Ca^2+-ATPase activity. The activity was determined by measuring the amount of the generated inorganic phosphate (Pi) by colorimetry using phosphor/molybdic acid and malachite green (μmoles Pi/mg protein/min).
Next, results obtained from the Ca^2+-ATPase activity assay of the sarcoplasmic reticulum collected from each region are shown in FIGS. 2 and 3.

[2] = molecular target: T1, sarcoplasmic reticulum Ca^2+-ATPase; assay: Direct effect in vitro on sarcoplasmic reticulum Ca2+-ATPase activity; type: biochemical, dog; details: preincubation 37° C. 5 min; for sarcoplasmic reticulum Ca^2+-ATPase activity, post-ischemic region, in vitro: control 0.045±0.005; for sarcoplasmic reticulum Ca^2+-ATPase activity, non-ischemic region, in vitro: control 0.057±0.003
Protocol: The Ca^2+-ATPase activity of the sarcoplasmic reticulum from both post-ischemic and non-ischemic regions of the left ventricle of dogs, in which LAD was occluded for 30 minutes followed by reperfusion for 30 minutes, was measured in the same manner as in Example 1. The direct effect of the medicament of the present invention on the sarcoplasmic reticulum was examined in vitro by determining the amount of inorganic phophorous generated during the reaction for 15 minutes, which was triggered by adding ATP to the reaction solution, with the preincubated medicament of the present invention at 37° C. for 5 minutes.
For each of post-ischemic region and non-ischemic region (N=6), three groups were tested; control group which was preincubated with H2O, groups with low level dosage (10^−7 M of the medicament of the present invention was administered), and group with high level dosage (10^−6 M of the medicament of the present invention was administered)

[3] = tested on: ischemic/reperfused myocardium; assay: Regional cardiac function (%SS) in brief-ischemic/reperfused myocardium in dogs; type: in vivo; details: dog; 30 min LAD occlusion, 1 h reperfusion; 3 μg/kg i.v. 5 min before reperfusion then 30 μg/kg/hr infusion
Protocol: The chest of mongrel dogs (adult, male and female) was opened under anesthesia with pentobarbital (30 mg/kg, i.v.) and a portion of the left coronary anterior descending (LAD) was dissected. A catheter-tip-pressure transducer (Millar; MPC-500) was inserted from the left carotidartery into the left ventricle to determine the left ventricular pressure and its first differential value (dP/dt). A pair of crystal probes were mounted in the LAD region to determine changes in regional segment length. Diastolic segment length (EDL; threshold point of dP/dt) and systolic segment length (ESL; dP/dt(−) max point) were determined from the waveform of dP/dt, and the regional segment shortening (%SS) in the ischemic/reperfused myocardium was calculated as follows: %SS=(EDL−ESL)/EDL×100. After hemodynamic stability is established following operation, the dissected portion of LAD was occluded for 30 minutes and then reperfused for 1 hour. At the same time, the cardiac function (%SS) in the above-described ischemic/reperfused region was continuously monitored through-out the protocol. The animals were randomly grouped into two groups, one consisting of animals to be administered with the medicament of the present invention (Drug administration group; N=6) and the other of control group (N-6). […]

Row | Structure (SMILES) | inhibition of the ATPase activity of the sarcoplasmic reticulum fraction ([1]; 1 μM) | sarcoplasmic reticulum Ca^2+-ATPase activity, post-ischemic region, in vitro ([2]; 10^−6 M (high concentration)) [μmol Pi/mg min] | sarcoplasmic reticulum Ca^2+-ATPase activity, non-ischemic region, in vitro ([2]; 10^−6 M (high level dosage)) [μmol Pi/mg min] | sarcoplasmic reticulum Ca^2+-ATPase activity, post-ischemic region, in vitro ([2]; 10^−7 M (low concentration)) [μmol Pi/mg min] | sarcoplasmic reticulum Ca^2+-ATPase activity, non-ischemic region, in vitro ([2]; 10^−7 M (low level dosage)) [μmol Pi/mg min] | regional cardiac function (%SS) in post-reperfusion region compared to control group [3] | sarcoplasmic reticulum Ca^2+-ATPase activity, post-ischemic region ([1]; Ca^2+ 10 μM, dog dosed in vivo 3 μg/kg i.v. + 30 μg/kg/hr, control group 0.070±0.004) [μmol Pi/mg min] | sarcoplasmic reticulum Ca^2+-ATPase activity, non-ischemic region ([1]; Ca^2+ 10 μM, dog dosed in vivo 3 μg/kg i.v. + 30 μg/kg/hr, control group 0.089±0.009) [μmol Pi/mg min]
1 | C/C=C(/C)C(=O)O[C@H]1C(C)=C2[C@H]([C@@H]1OC(=O)CCCCCCC)[C@@](C)(OC(C)=O)C[C@H](OC(=O)CCC)[C@@]1(O)[C@H]2OC(=O)[C@@]1(C)O [Thapsigargin, reference compound] | completely inhibited | – | – | – | – | – | – | –
2 | Cc1ccc(N2CCNCC2)c(S(=O)(=O)O)c1 [medicament of the present invention, 2-(1-piperazinyl)-5-methylbenzenesulfonic acid derivative monohydrate] | – | 0.062±0.005 | 0.060±0.003 | 0.057±0.003 | 0.062±0.002 | significantly improved | 0.090±0.008 | 0.088±0.006
